Data published in ChEMBL document CHEMBL1201862, “PubChem BioAssay data set” (2004).
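Interpolation was linear, between the two tested concentrations surrounding the appropriate level; five concentrations were tested over 48 hours in 96-well plates. GI50 = concentration required for 50% inhibition of growth.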 The source made the active and inactive calls. No stated cut-off is given here; in the data, active = GI50 up to about 1.1 µM and inactive = higher.

What was measured:
Test in all cases: DTP human tumour cell line panel, 48 h
DMS-273 = tested on: DMS-273
DLD-1 = tested on: DLD-1
LXFL 529 = tested on: LXFL 529
A549 = tested on: A549
SK-MEL-2 = tested on: SK-MEL-2
SF-295 = tested on: SF-295
OVCAR-4 = tested on: OVCAR-4
HOP-62 = tested on: HOP-62
OVCAR-5 = tested on: OVCAR-5
IGROV-1 = tested on: IGROV-1
A498 = tested on: A498
Malme-3M = tested on: Malme-3M
SR = tested on: SR
SK-OV-3 = tested on: SK-OV-3
NCI-H226 = tested on: NCI-H226
COLO 205 = tested on: COLO 205
SN12C = tested on: SN12C
KM12 = tested on: KM12
SNB-75 = tested on: SNB-75
M19-MEL = tested on: M19-MEL
M14 = tested on: M14
786-0 = tested on: 786-0
HCT-116 = tested on: HCT-116
KM-20L2 = tested on: KM-20L2
SF-539 = tested on: SF-539
SNB-19 = tested on: SNB-19
HCC 2998 = tested on: HCC 2998
CCRF-CEM = tested on: CCRF-CEM
UACC-257 = tested on: UACC-257
SK-MEL-5 = tested on: SK-MEL-5
LOX IMVI = tested on: LOX IMVI
U-251 = tested on: U-251
HOP-92 = tested on: HOP-92
UO-31 = tested on: UO-31
CAKI-1 = tested on: CAKI-1
UACC-62 = tested on: UACC-62
MOLT-4 = tested on: MOLT-4
DMS-114 = tested on: DMS-114
NCI-H460 = tested on: NCI-H460
ACHN = tested on: ACHN
RXF 393 = tested on: RXF 393
K562 = tested on: K562
HOP-18 = tested on: HOP-18
EKVX = tested on: EKVX
NCI-H23 = tested on: NCI-H23
SF-268 = tested on: SF-268
OVCAR-8 = tested on: OVCAR-8
HT-29 = tested on: HT-29
SK-MEL-28 = tested on: SK-MEL-28
NCI-H522 = tested on: NCI-H522
HL-60 = tested on: HL-60
RPMI-8226 = tested on: RPMI-8226
TK-10 = tested on: TK-10
OVCAR-3 = tested on: OVCAR-3
SNB-78 = tested on: SNB-78
XF498 = tested on: XF498
SW-620 = tested on: SW-620
HCT-15 = tested on: HCT-15

Measured: GI50

COC(=O)N1[C@H]2Cc3c(OC)c(C)c(OC)c(OC)c3[C@@H]1/C(=C\c1cc(OC)c(OC)c(C)c1OC)N(Cc1ccccc1)C2=O
inactive: DMS-273 13.2 µM | DLD-1 76.9 µM | LXFL 529 22 µM | A549 40.8 µM | SK-MEL-2 24.7 µM | SF-295 39 µM | OVCAR-4 6.7 µM | HOP-62 74.1 µM | OVCAR-5 > 100 µM | IGROV-1 95.3 µM | A498 > 100 µM | Malme-3M 28.6 µM | SR 7.85 µM | SK-OV-3 57.3 µM | COLO 205 13.8 µM | SN12C 40.6 µM | KM12 27.4 µM | SNB-75 67.5 µM | M19-MEL 19.9 µM | M14 29.7 µM | 786-0 54 µM | HCT-116 35.6 µM | KM-20L2 46.2 µM | SF-539 > 100 µM | SNB-19 58.9 µM | HCC 2998 8.51 µM | CCRF-CEM 28.6 µM | UACC-257 23 µM | SK-MEL-5 21.8 µM | LOX IMVI 30.5 µM | U-251 27.9 µM | HOP-92 7.96 µM | UO-31 18.7 µM | CAKI-1 34.6 µM | UACC-62 56.9 µM | MOLT-4 16.1 µM | DMS-114 14.7 µM | NCI-H460 13.2 µM | ACHN 32.4 µM | RXF 393 > 100 µM | K562 26.2 µM | HOP-18 41.8 µM | EKVX 37.7 µM | NCI-H23 75 µM | SF-268 78.2 µM | OVCAR-8 32.4 µM | HT-29 45.1 µM | SK-MEL-28 > 100 µM | NCI-H522 5.7 µM | HL-60 5.52 µM | RPMI-8226 20.9 µM | TK-10 33.3 µM | OVCAR-3 32.7 µM
active: NCI-H226 0.23 µM

COc1cc2cccc(/N=C/c3c(Br)ccc(OC)c3OC(C)C)c2cc1OC
inactive: DLD-1 23.8 µM | LXFL 529 26.8 µM | A549 82.4 µM | SK-MEL-2 > 100 µM | SF-295 53.6 µM | OVCAR-4 33 µM | HOP-62 53.2 µM | OVCAR-5 > 100 µM | IGROV-1 59.4 µM | A498 > 100 µM | Malme-3M 74.5 µM | SK-OV-3 > 100 µM | COLO 205 > 100 µM | SN12C > 100 µM | KM12 30.8 µM | SNB-75 24.4 µM | M19-MEL 30.1 µM | M14 27.1 µM | SNB-78 38.6 µM | 786-0 26.5 µM | HCT-116 31 µM | KM-20L2 > 100 µM | SF-539 50.6 µM | SNB-19 > 100 µM | HCC 2998 65.3 µM | CCRF-CEM 25.7 µM | UACC-257 35.2 µM | SK-MEL-5 55.7 µM | U-251 32.8 µM | UO-31 47.8 µM | CAKI-1 27.9 µM | UACC-62 45.7 µM | MOLT-4 28.3 µM | DMS-114 25.6 µM | NCI-H460 > 100 µM | ACHN 70.3 µM | XF498 56.9 µM | K562 27 µM | EKVX > 100 µM | NCI-H23 50.1 µM | SF-268 36 µM | OVCAR-8 44.4 µM | HT-29 32.2 µM | SK-MEL-28 41.6 µM | NCI-H522 30.5 µM | SW-620 32.4 µM | RPMI-8226 22.1 µM | TK-10 70.8 µM | OVCAR-3 33.7 µM

COC(=O)C1=COC2OC3/C(=C\c4ccc(O)c(OC)c4)C(=O)OC34C=CC1C24 (stereo unspecified)
inactive: DMS-273 16.3 µM | DLD-1 18.5 µM | LXFL 529 13.5 µM | A549 17.1 µM | SK-MEL-2 11.3 µM | SF-295 17.2 µM | OVCAR-4 17.6 µM | HOP-62 24.5 µM | OVCAR-5 18.3 µM | IGROV-1 24.4 µM | A498 27.7 µM | Malme-3M 16.5 µM | SR 28.8 µM | SK-OV-3 17 µM | NCI-H226 14.4 µM | COLO 205 20.1 µM | SN12C 17.8 µM | KM12 13.8 µM | SNB-75 11.7 µM | M19-MEL 14.2 µM | M14 3.37 µM | SNB-78 15.2 µM | HCT-116 19 µM | KM-20L2 17.8 µM | SF-539 17.4 µM | SNB-19 19.6 µM | HCC 2998 10.8 µM | CCRF-CEM 23.2 µM | UACC-257 15.9 µM | SK-MEL-5 35.2 µM | U-251 15.2 µM | HOP-92 22.5 µM | UO-31 14.4 µM | CAKI-1 23.3 µM | UACC-62 19.6 µM | MOLT-4 31.2 µM | DMS-114 24.7 µM | NCI-H460 17.9 µM | ACHN 15.1 µM | XF498 3.46 µM | K562 15.5 µM | NCI-H23 17.7 µM | SF-268 19.5 µM | OVCAR-8 18.9 µM | HT-29 19.2 µM | SK-MEL-28 18.6 µM | NCI-H522 15.2 µM | SW-620 20 µM | HL-60 9.18 µM | RPMI-8226 26.1 µM | TK-10 17.3 µM | OVCAR-3 14.9 µM
14.6 µM: HCT-15
